# Square brackets hold non-standard residues; d marks the D form. Ends that are not written are not given here. 1Nal = N[C@@H](Cc1cccc2ccccc12)C(=O)O; Tle = CC(C)(C)[C@H](N)C(=O)O; βAla = NCCC(=O)O; Sar = CNCC(=O)O
# What was measured:
# CAIX [1] = biological target: T1, CAIX (Homo sapiens, UniProt Q16790); assay: CAIX competition binding assay (competition fluorescence polarization); details: fluorescent ligand A-(CAECWIDGWVPC)-A-Sar6-K(Fl)
# Method: CAIX Competition Binding Assay Affinity of the peptides of the invention for human CAIX (Ki) was determined using a competition fluorescence polarization assay analogous to that described in Dubois et al. (2011) Radiotherapy and Oncology 99(3), 424-43 using A-(CAECWIDGWVPC)-A-Sar6-K(Fl) (SEQ ID NO: 5) as the fluorescent ligand.
# A Ki value designated “A” denotes a Ki of ≤50 nM; a Ki value designated “B” denotes a K, of >50 nM and ≤100 nM; a Ki value designated “C” denotes a Ki of >100 nM and ≤1,000 nM; and a Ki value designated “D” denotes a Ki of >1,000 nM.
# MT1-MMP = MT1-MMP (Homo sapiens, UniProt P50281); details: bicyclic peptide formed with TBMB scaffold; MT1-MMP binder; cited from earlier work
# CAIX [2] = biological target: T1, CAIX; details: bicyclic peptide formed with TBMB scaffold; CAIX binder; cited from earlier work
Ki (CAIX [1]) [nM],Compound,also measured
100 to 1000,CC(C)[C@@H]1NC(=O)[C@H](Cc2c[nH]c3ccccc23)NC(=O)[C@@H]2CSCCC(=O)N3CCN(CCN(CC3)C(=O)CCSC[C@H](NC(=O)[C@H](C)NC(=O)CN(C)C(=O)CN(C)C(=O)CN(C)C(=O)CN(C)C(=O)CN(C)C(=O)CN(C)C(=O)CN(C)C(=O)CN(C)C(=O)CN(C)C(=O)CN(C)C(=O)CCN)C(=O)N[C@@H]([C@@H](C)O)C(=O)N[C@@H](CCC(=O)O)C(=O)N2)C(=O)CCSC[C@@H](C(N)=O)NC(=O)[C@@H]2CCCN2C(=O)[C@H](C(C)C)NC(=O)[C@H](Cc2c[nH]c3ccccc23)NC(=O)CNC(=O)[C@H](CC(=O)O)NC1=O [Compound I-22],
> 1000,CC(C)[C@@H]1NC(=O)[C@H](Cc2c[nH]c3ccccc23)NC(=O)[C@@H]2CSCC(=O)N3CC45CN(C[C@@]4(CN(C5)C(=O)CSC[C@H](NC(=O)[C@H](C)NC(=O)CN(C)C(=O)CN(C)C(=O)CN(C)C(=O)CN(C)C(=O)CN(C)C(=O)CN(C)C(=O)CN(C)C(=O)CN(C)C(=O)CN(C)C(=O)CN(C)C(=O)CCN)C(=O)N[C@@H]([C@@H](C)O)C(=O)N[C@@H](CCC(=O)O)C(=O)N2)C3)C(=O)CSC[C@@H](C(N)=O)NC(=O)[C@@H]2CCCN2C(=O)[C@H](C(C)C)NC(=O)[C@H](Cc2c[nH]c3ccccc23)NC(=O)CNC(=O)[C@H](CC(=O)O)NC1=O [Compound I-23],
> 1000,CC(C)[C@@H]1NC(=O)[C@H](Cc2c[nH]c3ccccc23)NC(=O)[C@@H]2CSCCC(=O)N3CC45CN(CC4(CN(C5)C(=O)CCSC[C@H](NC(=O)[C@H](C)NC(=O)CN(C)C(=O)CN(C)C(=O)CN(C)C(=O)CN(C)C(=O)CN(C)C(=O)CN(C)C(=O)CN(C)C(=O)CN(C)C(=O)CN(C)C(=O)CN(C)C(=O)CCN)C(=O)N[C@@H]([C@@H](C)O)C(=O)N[C@@H](CCC(=O)O)C(=O)N2)C3)C(=O)CCSC[C@@H](C(=O)O)NC(=O)[C@@H]2CCCN2C(=O)[C@H](C(C)C)NC(=O)[C@H](Cc2c[nH]c3ccccc23)NC(=O)CNC(=O)[C@H](CC(=O)O)NC1=O [Compound I-24],
≤ 50,CC(C)[C@@H]1NC(=O)[C@H](Cc2c[nH]c3ccccc23)NC(=O)[C@@H]2CSCC(=O)NCCN(CCNC(=O)CSC[C@@H](C(N)=O)NC(=O)[C@@H]3CCCN3C(=O)[C@H](C(C)C)NC(=O)[C@H](Cc3c[nH]c4ccccc34)NC(=O)CNC(=O)[C@H](CC(=O)O)NC1=O)CCNC(=O)CSC[C@H](NC(=O)[C@H](C)NC(=O)CN(C)C(=O)CN(C)C(=O)CN(C)C(=O)CN(C)C(=O)CN(C)C(=O)CN(C)C(=O)CN(C)C(=O)CN(C)C(=O)CN(C)C(=O)CN(C)C(=O)CCN)C(=O)N[C@@H]([C@@H](C)O)C(=O)N[C@@H](CCC(=O)O)C(=O)N2 [Compound I-63],

# The next lines start with the compound.
Compound,Ki (CAIX [1]) [nM],also measured
CC(C)[C@@H]1NC(=O)[C@H](Cc2c[nH]c3ccccc23)NC(=O)[C@@H]2CSCC(=O)N3CCOCCN(CCOCCN(CCOCC3)C(=O)CSC[C@H](NC(=O)[C@H](C)NC(=O)CN(C)C(=O)CN(C)C(=O)CN(C)C(=O)CN(C)C(=O)CN(C)C(=O)CN(C)C(=O)CN(C)C(=O)CN(C)C(=O)CN(C)C(=O)CN(C)C(=O)CCN)C(=O)N[C@@H]([C@@H](C)O)C(=O)N[C@@H](CCC(=O)O)C(=O)N2)C(=O)CSC[C@@H](C(=O)O)NC(=O)[C@@H]2CCCN2C(=O)[C@H](C(C)C)NC(=O)[C@H](Cc2c[nH]c3ccccc23)NC(=O)CNC(=O)[C@H](CC(=O)O)NC1=O [Compound I-26],100 to 1000,
CC(C)[C@@H]1NC(=O)[C@H](Cc2c[nH]c3ccccc23)NC(=O)[C@@H]2CSCCS(=O)(=O)N3CCN(CCN(CC3)S(=O)(=O)CCSC[C@H](NC(=O)[C@H](C)NC(=O)CN(C)C(=O)CN(C)C(=O)CN(C)C(=O)CN(C)C(=O)CN(C)C(=O)CN(C)C(=O)CN(C)C(=O)CN(C)C(=O)CN(C)C(=O)CN(C)C(=O)CCN)C(=O)N[C@@H]([C@@H](C)O)C(=O)N[C@@H](CCC(=O)O)C(=O)N2)S(=O)(=O)CCSC[C@@H](C(=O)O)NC(=O)[C@@H]2CCCN2C(=O)[C@H](C(C)C)NC(=O)[C@H](Cc2c[nH]c3ccccc23)NC(=O)CNC(=O)[C@H](CC(=O)O)NC1=O [Compound I-62],100 to 1000,
βAla-Sar10-A-C(D-Ala)NE(1Nal)(D-Ala)CEDFYD(tBuGLy)C ([βAla][Sar][Sar][Sar][Sar][Sar][Sar][Sar][Sar][Sar][Sar]AC[dA]NE[1Nal][dA]CEDFYD[Tle]C; cysteine pairing not given here) [17-69-07-N241],,Kd (MT1-MMP): 1.2 nM
βAla-Sar10-A-CTECWVDGWVPC [Compound 2],,Kd (CAIX [2]): 10 nM

# Reference: patent publication US10857196B2, “Bicyclic peptide ligands and uses thereof” (BicycleTx Limited, priority 2017, dated 2020)
